Assay results reported in ChEMBL document CHEMBL5214886, “An appraisal of anti-mycobacterial activity with structure-activity relationship of piperazine and its analogues: A review” (Eur J Med Chem, 2021).
Values after ≈ are worked out from the molar mass of the structure shown. Values joined by “and” are separate entries in the source; they are usually repeats but may differ in a detail not shown here. Equal values may be shown once.

What was measured:
[1] = test system: Mycobacterium tuberculosis; test: Antimycobacterial activity against Mycobacterium tuberculosis H37Rv assessed as reduction in bacterial growth; assay type: functional
[2] = test system: Mycobacterium tuberculosis; test: Antimycobacterial activity against Mycobacterium tuberculosis H37Ra assessed as reduction in bacterial growth; assay type: functional
[3] = test system: Mycobacterium tuberculosis; test: Antimycobacterial activity against Mycobacterium tuberculosis H37Rv assessed as reduction in bacterial growth by BACTEC MGIT method; assay type: functional
[4] = test system: Mycobacterium tuberculosis; test: Antimycobacterial activity against Mycobacterium tuberculosis H37Rv assessed as reduction in bacterial growth by agar dilution method; assay type: functional
[5] = test system: Mycobacterium tuberculosis; test: Antimycobacterial activity against Mycobacterium tuberculosis H37Rv assessed as reduction in bacterial growth by MABA assay; assay type: functional
[6] = test system: Mycobacterium tuberculosis; test: Antimycobacterial activity against Mycobacterium tuberculosis H37Rv ATCC 27294 assessed as reduction in bacterial growth by MABA analysis; assay type: functional
[7] = test system: Mycobacterium tuberculosis; test: Antimycobacterial activity against Mycobacterium tuberculosis H37Rv assessed as reduction in bacterial growth incubated for 21 days by broth dilution assay; assay type: functional; conditions: 504 h, time 21 day
[8] = test system: Mycobacterium tuberculosis; test: Antimycobacterial activity against Mycobacterium tuberculosis H37Rv ATCC 27294 assessed as reduction in bacterial growth incubated for 72 hrs by two-fold dilution method; assay type: functional
[9] = biological target: T1, Enoyl-[acyl-carrier-protein] reductase [NADH] (Mycobacterium tuberculosis, UniProt P9WGR1); test: Inhibition of Mycobacterium tuberculosis InhA using octenoyl-CoA as substrate in presence of NADH and measured for 10 mins by colorimetric assay
T1 sequence (P9WGR1 whole entry): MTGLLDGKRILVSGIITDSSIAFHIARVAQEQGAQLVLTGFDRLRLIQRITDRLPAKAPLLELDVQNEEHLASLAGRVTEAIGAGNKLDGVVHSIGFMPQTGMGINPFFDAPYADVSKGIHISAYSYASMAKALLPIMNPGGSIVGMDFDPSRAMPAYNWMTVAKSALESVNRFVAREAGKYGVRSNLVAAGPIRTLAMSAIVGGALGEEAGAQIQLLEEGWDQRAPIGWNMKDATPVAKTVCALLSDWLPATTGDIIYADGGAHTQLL

[10] = test system: Mycobacterium tuberculosis; test: Antimycobacterial activity against Mycobacterium tuberculosis H37Rv ATCC 27294 assessed as reduction in bacterial growth incubated for 7 days by MABA analysis; assay type: functional; conditions: H37Rv ATCC 27294, 168 h, time 7 day
[11] = test system: Mycobacterium tuberculosis; test: Antimycobacterial activity against Mycobacterium tuberculosis H37Rv assessed as reduction in bacterial growth incubated for 15 days by turbidometric method; assay type: functional; conditions: 360 h, time 15 day
[12] = test system: Mycobacterium tuberculosis; test: Antimycobacterial activity against Mycobacterium tuberculosis H37Rv assessed as reduction in bacterial growth by MABA analysis; assay type: functional
[13] = test system: Mycobacterium tuberculosis; test: Antimycobacterial activity against Mycobacterium tuberculosis H37Rv assessed as reduction in bacterial growth incubated for 6 days by resazurin reduction microplate assay; assay type: functional; conditions: 144 h, time 6 day
[14] = Aqueous solubility of the compound incubated for 3 days by shake flask method; assay type: physicochemical; conditions: water; time 3 day
[15] = test system: Mycobacterium tuberculosis; test: Antimycobacterial activity against Mycobacterium tuberculosis My 331/88 (H37Rv) assessed as reduction in bacterial growth incubated for 14 days by microdilution method; assay type: functional; conditions: 336 h, time 14 day
[16] = test system: Mycobacterium tuberculosis; test: Antimycobacterial activity against Mycobacterium tuberculosis H37Rv ATCC 27294 assessed as reduction in bacterial growth and measured after 21 days by radiometric BACTEC method; assay type: functional; conditions: H37Rv ATCC 27294, 504 h, time 21 day
[17] = test system: Mycobacterium tuberculosis; test: Antimycobacterial activity against Mycobacterium tuberculosis H37Rv ATCC 27294 assessed as reduction in bacterial growth; assay type: functional
[18] = test system: Mycobacterium tuberculosis; test: Antimycobacterial activity against Mycobacterium tuberculosis H37Rv assessed as reduction in bacterial growth and measured after 7 days by resazurin assay; assay type: functional, organism-based; conditions: 168 h
[19] = test system: Mycobacterium tuberculosis; test: Antimycobacterial activity against Mycobacterium tuberculosis kurono assessed as reduction in bacterial colonies incubated for 14 days by colony counting method; assay type: functional; conditions: 336 h, time 14 day
[20] = test system: Mycobacterium tuberculosis; test: Antimycobacterial activity against Mycobacterium tuberculosis H37Rv assessed as reduction in bacterial colonies by colony counting method; assay type: functional
[21] = test system: Mycobacterium tuberculosis; test: Antimycobacterial activity against Mycobacterium tuberculosis H37Rv ATCC 27294 assessed as reduction in bacterial growth by fluorescence based MABA method; assay type: functional
[22] = test system: Mycobacterium tuberculosis; test: Antimycobacterial activity against Mycobacterium tuberculosis H37Rv assessed as reduction in bacterial growth by REMA analysis; assay type: functional

O=C(NCc1ccc(N2CCN(Cc3ccccc3)CC2)cc1)c1ccc([N+](=O)[O-])o1
MIC [1]: 0.014 µM (≈ 0.00589 µg/mL)
MIC [2]: 0.014 µM (≈ 0.00589 µg/mL)

N#Cc1ccc(Nc2nc(Oc3ncnc4ccccc34)nc(N3CCN(c4cccc(Cl)c4Cl)CC3)n2)cc1C(F)(F)F
MIC [3]: > 9.79 µM
MIC [4]: 9.79 µM (≈ 6.25 µg/mL)

CCn1cc(C(=O)O)c(=O)c2cc(F)c(N3CCN(CN4C(=O)/C(=N\c5ncc(Cc6cc(OC)c(OC)c(OC)c6)c(N)n5)c5cc(Cl)ccc54)C(C)C3)c(F)c21 (stereo not drawn)
MIC [5]: 1.91 µM (≈ 1.56 µg/mL)
MIC [6]: 1.91 µM (≈ 1.56 µg/mL)

CCn1cc(C(=O)O)c(=O)c2cc(F)c(N3CCN(c4nnc(SCC(=O)c5ccc([N+](=O)[O-])cc5)s4)CC3)cc21
MIC [7]: 1.68 µM (≈ 1.01 µg/mL)

O=C(CSc1nnc(N2CCN(c3cc4c(cc3F)c(=O)c(C(=O)O)cn4C3CC3)CC2)s1)c1ccc(Cl)cc1
MIC [7]: 1.67 µM (≈ 1 µg/mL)

O=C(CSc1nnc(N2CCN(c3cc4c(cc3F)c(=O)c(C(=O)O)cn4C3CC3)CC2)s1)c1ccc([N+](=O)[O-])cc1
MIC [7]: 0.82 µM (≈ 0.501 µg/mL)

CCOC(=O)C1=NOC(c2ccc(N3CCN(Cc4ccccc4)CC3)cc2)C1 (stereo not drawn)
MIC90 [7]: 3.96 µM (≈ 1.56 µg/mL)

COc1ccc2cc(C(=O)CN3CCN(c4c(F)cc5c(=O)c(C(=O)O)cn(C6CC6)c5c4OC)CC3)c(=O)oc2c1
MIC [8]: 0.43 µM (≈ 0.248 µg/mL)

O=C(c1ccc2[nH]ccc2c1)N1CCN(C2c3ccccc3-c3ccc([N+](=O)[O-])cc32)CC1 (stereo not drawn)
IC50 [9]: 270 nM

CC(C)(C)c1ccc(S(=O)(=O)N2CCN(c3nc4ccccc4c4ccccc34)CC2)cc1
MIC [10]: 3.39 µM (≈ 1.56 µg/mL)

O=C(c1ccncc1)N1CCN(c2nc3ccccc3c3ccccc23)CC1
MIC [10]: 4.23 µM (≈ 1.56 µg/mL)

Cc1cccc(-c2nc(CN3CCN(c4ccnc5cc(-c6cccnc6)ccc45)CC3)no2)c1C
MIC [11]: 0.52 µM (≈ 0.248 µg/mL)

CON=C1CCC(CN2CCN(c3nc(=O)c4cc(C(F)(F)F)cc([N+](=O)[O-])c4s3)CC2)CC1 (stereo not drawn)
MIC [12]: < 0.03 µM

CCON=C1CCC(CN2CCN(c3nc(=O)c4cc(C(F)(F)F)cc([N+](=O)[O-])c4s3)CC2)CC1 (stereo not drawn)
MIC [12]: < 0.03 µM

O=c1nc(N2CCN(S(=O)(=O)C3CC3)CC2)sc2c([N+](=O)[O-])cc(C(F)(F)F)cc12
MIC [13]: 6.4 nM (≈ 0.00297 µg/mL)
solubility thermodynamic at 72 h [14]: 15.9 µM (≈ 7.39 µg/mL)

CCCCOC(=O)Nc1ccc(C(O)CN2CCN(c3ccccc3F)CC2)cc1 (stereo not drawn)
MIC [15]: 8 µM (≈ 3.32 µg/mL)

CCOC(=O)N1CCN(CC(=O)C2C(c3ccc(OC)cc3)C(C)C(=O)C(C)C2c2ccc(OC)cc2)CC1 (stereo not drawn)
MIC [16]: 29.8 µM (≈ 16 µg/mL)

COC(=O)COc1ccc2ccccc2c1CN1CCN(C/C=C/c2ccccc2)CC1
MIC [1]: 9.3 µM (≈ 4 µg/mL)

O=C(NCc1ccc(N2CCN(c3ccc(F)cc3F)CC2)cc1)c1ccc([N+](=O)[O-])o1
MIC [12]: < 0.04 µM

COc1cc(N2CCN(c3ccc(N4C[C@H](CNC(C)=O)OC4=O)cc3F)CC2)nc2nccn12
MIC [17]: 1.03 µM (≈ 0.498 µg/mL)

Cc1ccc2nc(-c3ccccc3)c(C(c3ccccc3)N(CC(=O)N3CCN(c4ccccn4)CC3)Cc3ccccc3)cc2c1 (stereo not drawn)
IC50 [18]: 3.98 µM

Cc1cn2c(C(=O)NCc3ccc(N4CCN(c5ccc(C(F)(F)F)cn5)CC4)c(F)c3)cnc2s1
MIC [10]: 0.004 µM (≈ 0.00207 µg/mL)

CCOC(=O)N1CCN(CC(=O)C2C(c3ccc(Cl)cc3)C(C)C(=O)C(C)C2c2ccc(Cl)cc2)CC1 (stereo not drawn)
MIC [16]: 29.3 µM (≈ 16 µg/mL)

CCOC(=O)N1CCN(CC(=O)C2C(c3ccccc3)C(C)C(=O)C(C)C2c2ccccc2)CC1 (stereo not drawn)
MIC [16]: 33.6 µM (≈ 16 µg/mL)

CCOC(=O)c1ccc(N2CCN(c3nccc(N4CCOc5nc([N+](=O)[O-])cn5C4)n3)CC2)cc1
MIC [5]: > 100 µM

CCOC(=O)N1CCN(CC(=O)C2C(c3ccccc3)CC(=O)C(CC)C2c2ccccc2)CC1 (stereo not drawn)
MIC [16]: 33.6 µM (≈ 16 µg/mL)

CC(C)(c1ccc(OCc2ccc(C(F)(F)F)cc2)cc1)N1CCN(c2ccc(OC[C@H]3CCn4cc([N+](=O)[O-])nc4O3)cc2)CC1
MIC [19]: 1 nM (≈ 0.000652 µg/mL)

CCOC(=O)N1CCN(CC(=O)C2C(c3cccc(F)c3)C(C)C(=O)C(C)C2c2cccc(F)c2)CC1 (stereo not drawn)
MIC [16]: 31.2 µM (≈ 16 µg/mL)

O=C(CCCc1cc2ccccc2[nH]1)N1CCN(c2nc3ccccc3c3ccccc23)CC1
MIC [10]: 3.48 µM (≈ 1.56 µg/mL)

CCCCCCCCCN1CCN(c2c(F)cc3c(c2OC)C(C2CC2)=CC(C(=O)O)C3=O)CC1 (stereo not drawn)
MIC [20]: 0.25 µM (≈ 0.122 µg/mL)

COc1ccc(N2CCN(c3ccc(CNC(=O)c4ccc([N+](=O)[O-])o4)cc3)CC2)cc1
MIC [12]: < 0.04 µM

CC(=O)NC[C@H]1CN(c2ccc(N3CCN(c4ccc5nccn5n4)CC3)c(F)c2)C(=O)O1
MIC [17]: 1.1 µM (≈ 0.499 µg/mL)

O=C(NCc1ccc(N2CCN(c3ccc(F)cc3)CC2)cc1)c1ccc([N+](=O)[O-])o1
MIC [12]: < 0.04 µM

CC1COc2c(N3CCNCC3)c(F)cc3c(=O)c(C(=O)O)cn1c23 (stereo not drawn) [DESMETHYL-OFLOXACIN]
MIC [21]: 11.7 µM and 4.55 µM

CC[C@@H](CO)NCCN[C@@H](CC)CO [ETHAMBUTOL]
MIC [15]: 1.1 µM (≈ 0.225 µg/mL)

COc1c(N2CCNC(C)C2)c(F)cc2c(=O)c(C(=O)O)cn(C3CC3)c12 (stereo not drawn) [GATIFLOXACIN]
MIC [8]: 0.66 µM (≈ 0.248 µg/mL)

NNC(=O)c1ccncc1 [ISONIAZID]
MIC [12]: 0.06 µM (≈ 0.00823 µg/mL)
MIC [7]: 10.9 µM (≈ 1.5 µg/mL)

O=c1nc(N2CCN(CC3CCCCC3)CC2)sc2c([N+](=O)[O-])cc(C(F)(F)F)cc12 [MACOZINONE]
MIC [22]: < 0.42 µM
MIC [13]: 0.4 nM (≈ 0.000183 µg/mL)

CC1COc2c(N3CCN(C)CC3)c(F)cc3c(=O)c(C(=O)O)cn1c23 (stereo not drawn) [OFLOXACIN]
MIC [15]: 1 µM (≈ 0.361 µg/mL)

NC(=O)c1cnccn1 [PYRAZINAMIDE]
MIC [3]: 50.8 µM (≈ 6.25 µg/mL)
MIC [4]: 50.8 µM (≈ 6.25 µg/mL)

CO[C@H]1/C=C/O[C@@]2(C)Oc3c(C)c(O)c4c(O)c(c(/C=N/N5CCN(C)CC5)c(O)c4c3C2=O)NC(=O)/C(C)=C\C=C\[C@H](C)[C@H](O)[C@@H](C)[C@@H](O)[C@@H](C)[C@H](OC(C)=O)[C@@H]1C [RIFAMPIN]
MIC [12]: > 48.6 µM
